Measurements taken from patent US20180064659A1, “AGENTS USEFUL FOR TREATING OBESITY, DIABETES AND RELATED DISORDERS” (The Regents of the University of California, priority 2015, published 2018).

System: FL83B cells
Assay: High-throughput in-cell western blot (ICWB) screen for insulin sensitizers, P-Akt over P-ERK
Assay type: cell-based, mouse
Conditions: 1689 molecules screened
Procedure: Drugs were screened by in-cell western blot (ICWB) for their ability to stimulate phospho-Akt activation in the presence of trace or 10 nM insulin (FIG. 4A). Cells in wells were treated with drugs, and the activity (phosphorylation) of Akt was determined by a phospho-Akt specific antibody. In FIG. 4A, low insulin was given and drugs a, b, c, stimulated Akt activation. In FIG. 4B, 10 nM insulin was given and a, b, and c stimulated signaling over background, and d and […] inhibited. […] Drugs were primarily screened for their ability to promote insulin-dependent stimulation of (phospho)Akt, then secondarily screened for lack of activity to stimulate (phospho) Erk, or a high Akt/Erk ratio. Such drugs are expected to cause insulin sensitivity, resistance to obesity, and longevity. Some drugs having these desired characteristics are Shc inhibitors.
Primary ICWB was performed as follows: FL83B cells were seeded on 384 well plates, 10,000 cells per well in F-12 media supplemented with 10% FBS and 25 mM glucose; 48 hours later the media was replaced with F-12, 25 mM glucose without FBS for sixteen hours; cells were supplemented with assigned drug at desired concentration for 1 hour in duplicate and then, the cells were stimulated with desired concentration of insulin for ten minutes for Akt activation and fifteen minutes for ERK activation measurements. After that time the media was removed and replaced with fixing solution of 5% Formaldehyde in PBS, pH=7.4, 30 minutes later, the fixing solution was replaced with the permeabilization buffer, 0.1% triton X100 in PBS for 40 minutes. […] After the incubation with the secondary antibodies for one hour at room temperature, the wells were washed again two times with the 0.1% tween-20 in PBS and scanned on the Li-Cor Odyssey infrared scanner; images were analyzed with the Li-Cor Odyssey software. […] Phospho-Akt, Phospho-ERK signals than were normalized by tubulin signals in each well and the densitometric results were analyzed to identify drugs which improved metabolic insulin sensitivity without inducing the mitogenic ERK activation. […]

## CN(C)C(=N)N=C(N)N [metformin]
  Score rank in screening assay: scored in the top 35 out of 1689 molecules
